Data reported in patent publication US8927717B1, “Thiochromeno[2,3-c]quinolin-12-one derivatives, preparation method and application thereof” (National Defense Medical Center, priority 2014, dated 2015).

Experiments:
[1] = system: IGROV1; format: cell-based; conditions: IGROV1; 10^−5 molar
[2] = system: A498; format: cell-based; conditions: A498; 10^−5 molar
[3] = system: UACC-257; format: cell-based; conditions: UACC-257; 10^−5 molar
[4] = system: NCI/ADR-RES; format: cell-based; conditions: NCI/ADR-RES; 10^−5 molar
[5] = system: UACC-62; format: cell-based; conditions: UACC-62; 10^−5 molar
[6] = system: MALME-3M; format: cell-based; conditions: MALME-3M; 10^−5 molar
[7] = system: M14; format: cell-based; conditions: M14; 10^−5 molar
[8] = system: HOP-92; format: cell-based; conditions: HOP-92; 10^−5 molar
[9] = system: HCC-2998; format: cell-based; conditions: HCC-2998; 10^−5 molar
[10] = system: SNB-19; format: cell-based; conditions: SNB-19; 10^−5 molar
[11] = system: SF-539; format: cell-based; conditions: SF-539; 10^−5 molar
[12] = system: TK-10; format: cell-based; conditions: TK-10; 10^−5 molar
[13] = system: SF-268; format: cell-based; conditions: SF-268; 10^−5 molar
[14] = system: SK-MEL-28; format: cell-based; conditions: SK-MEL-28; 10^−5 molar
[15] = system: MDA-MB-435; format: cell-based; conditions: MDA-MB-435; 10^−5 molar
[16] = system: OVCAR-5; format: cell-based; conditions: OVCAR-5; 10^−5 molar
[17] = system: SK-MEL-2; format: cell-based; conditions: SK-Mel-2; 10^−5 molar
[18] = system: OVCAR-3; format: cell-based; conditions: OVCAR-3; 10^−5 molar
[19] = molecular target: T1, TOP I (Topoisomerase I) (Homo sapiens, UniProt P11387); assay: TOP I mediated supercoiled DNA relaxation assay; format: biochemical; conditions: primary assay at 25 and/or 50 μM
T1 construct: purchased TopoGEN TG2005H
T1 sequence (P11387 1-765): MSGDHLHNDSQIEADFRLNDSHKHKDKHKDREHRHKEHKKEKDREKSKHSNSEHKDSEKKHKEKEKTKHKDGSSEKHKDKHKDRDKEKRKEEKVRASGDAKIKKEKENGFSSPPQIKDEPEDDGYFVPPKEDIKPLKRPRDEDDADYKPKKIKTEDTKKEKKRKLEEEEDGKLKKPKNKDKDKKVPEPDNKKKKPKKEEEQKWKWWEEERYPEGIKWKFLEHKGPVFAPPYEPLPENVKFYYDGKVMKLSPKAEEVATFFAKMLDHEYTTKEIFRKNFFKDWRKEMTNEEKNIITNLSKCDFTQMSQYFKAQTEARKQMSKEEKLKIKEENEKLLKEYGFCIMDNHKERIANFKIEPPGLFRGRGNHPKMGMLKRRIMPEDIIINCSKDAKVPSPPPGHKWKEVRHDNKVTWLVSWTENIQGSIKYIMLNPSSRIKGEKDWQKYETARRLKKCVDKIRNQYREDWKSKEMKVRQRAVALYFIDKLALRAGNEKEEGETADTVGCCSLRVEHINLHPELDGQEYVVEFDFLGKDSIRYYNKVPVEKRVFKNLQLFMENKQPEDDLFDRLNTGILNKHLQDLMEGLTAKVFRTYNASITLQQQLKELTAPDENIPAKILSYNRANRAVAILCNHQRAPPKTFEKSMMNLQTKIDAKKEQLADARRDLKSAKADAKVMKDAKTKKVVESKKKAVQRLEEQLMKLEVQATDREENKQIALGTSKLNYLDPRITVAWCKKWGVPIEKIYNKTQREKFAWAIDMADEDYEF
Protocol: According to the cell cytotoxicity, compounds 5, 7, 8, 16, 19, N2, N7, N8, N9, N14-N19, and N25 were also selected for primary TOP I and II activities assays at 25 and/or 50 μM (FIG. 2-4).

[20] = system: CAKI-1; format: cell-based; conditions: CAKI-1; 10^−5 molar
[21] = system: OVCAR-4; format: cell-based; conditions: OVCAR-4; 10^−5 molar

| SMILES | Growth percent [1] | Growth percent [2] | Growth percent [3] | Growth percent [4] | Growth percent [5] | Growth percent [6] | melting point | Growth percent [7] | Growth percent [8] | Growth percent [9] | Growth percent [10] | Growth percent [11] | Growth percent [12] | Growth percent [13] | Growth percent [14] | Growth percent [15] | Growth percent [16] | Growth percent [17] | further results |
| --- | --- | --- | --- | --- | --- | --- | --- | --- | --- | --- | --- | --- | --- | --- | --- | --- | --- | --- | --- |
| O=c1c2cc(Cl)ccc2sc2c(NCCN3CCOCC3)nc3ccccc3c12 [Compound N16, 10-Chloro-6-((2-morpholinoethyl)amino)-12H-thiochromeno[2,3-c]quinolin-12-one] | 74.11% | 80.54% | 106.52% | 77.03% | 94.58% | 78.79% | 189 to 190 °C | 99.59% | 58.79% | 90.51% | 90.44% | 76.72% | 76.67% | 79.49% | 98.56% | 98.93% | 68.98% | 94.52% | Growth percent [18]: 97.14% |
| CN(C)CCCNc1nc2ccccc2c2c(=O)c3cc(Cl)ccc3sc12 [Compound N17, 10-Chloro-6-((3-(dimethylamino)propyl)amino)-12H-thiochromeno[2,3-c]quinolin-12-one] | 87.27% | 78.57% | 107.40% | 96.94% | 102.63% | 100.91% | 194 to 195 °C | 103.73% | 40.76% | 108.36% | 97.83% | 87.85% | 108.89% | 87.67% | 99.63% | 93.04% | 106.26% | 106.47% | inhibitory effect in TOP I activity assay compared with CPT [19]: more potent inhibitory effects than CPT; Growth percent [20]: 84.31%; Growth percent [21]: 94.63% |
